Data on one molecule can be found in BindingDB's records for doi:10.1124/jpet.105.086363 (Wyeth, 2005).

One experiment addresses T1, D(4) dopamine receptor (Homo sapiens, UniProt P21917).
T1 sequence (P21917 whole entry): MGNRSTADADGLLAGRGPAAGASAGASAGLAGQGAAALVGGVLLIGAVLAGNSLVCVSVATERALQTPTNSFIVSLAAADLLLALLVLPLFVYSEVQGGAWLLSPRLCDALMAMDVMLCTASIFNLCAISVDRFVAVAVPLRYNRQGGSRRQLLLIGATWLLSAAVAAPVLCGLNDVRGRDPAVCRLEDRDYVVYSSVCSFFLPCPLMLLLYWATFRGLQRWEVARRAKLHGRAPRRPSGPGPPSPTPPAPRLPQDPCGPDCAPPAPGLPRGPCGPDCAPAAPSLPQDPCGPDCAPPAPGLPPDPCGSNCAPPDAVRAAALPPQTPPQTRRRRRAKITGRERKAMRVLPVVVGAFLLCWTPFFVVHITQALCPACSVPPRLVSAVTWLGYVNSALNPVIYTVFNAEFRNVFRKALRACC

The next experiment concerns the target D(2) dopamine receptor (Homo sapiens, UniProt P14416).
Experiment [1] deals with T2, 5-hydroxytryptamine receptor 1A (Homo sapiens, UniProt P08908).
T2 sequence (P08908 whole entry): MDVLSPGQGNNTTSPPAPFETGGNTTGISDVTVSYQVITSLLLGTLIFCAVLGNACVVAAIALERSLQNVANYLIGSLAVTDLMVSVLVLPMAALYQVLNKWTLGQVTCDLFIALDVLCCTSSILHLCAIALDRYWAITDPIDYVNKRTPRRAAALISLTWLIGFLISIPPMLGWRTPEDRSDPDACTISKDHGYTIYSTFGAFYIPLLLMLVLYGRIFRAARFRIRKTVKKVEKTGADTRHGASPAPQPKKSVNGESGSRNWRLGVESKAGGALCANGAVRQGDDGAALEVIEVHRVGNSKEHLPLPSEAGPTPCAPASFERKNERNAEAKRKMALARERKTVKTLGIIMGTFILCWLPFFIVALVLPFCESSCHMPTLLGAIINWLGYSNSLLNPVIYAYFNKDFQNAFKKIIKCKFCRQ

The next experiment deals with D(3) dopamine receptor (Homo sapiens, UniProt P35462).
Sequence of D(3) dopamine receptor (P35462 as listed by the source): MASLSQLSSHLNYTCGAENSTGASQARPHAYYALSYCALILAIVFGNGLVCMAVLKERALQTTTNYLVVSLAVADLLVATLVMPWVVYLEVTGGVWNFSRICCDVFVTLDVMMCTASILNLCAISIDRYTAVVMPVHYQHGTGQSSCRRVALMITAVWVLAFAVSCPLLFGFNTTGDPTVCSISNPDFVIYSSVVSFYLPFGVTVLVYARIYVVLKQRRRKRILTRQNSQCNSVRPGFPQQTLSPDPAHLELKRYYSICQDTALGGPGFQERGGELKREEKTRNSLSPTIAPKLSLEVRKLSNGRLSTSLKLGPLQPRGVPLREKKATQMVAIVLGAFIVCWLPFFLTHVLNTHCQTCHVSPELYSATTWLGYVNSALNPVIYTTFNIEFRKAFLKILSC
Experiment [2] deals with T3, Alpha-1A adrenergic receptor (Rattus norvegicus, UniProt P43140).
T3 sequence (P43140 whole entry): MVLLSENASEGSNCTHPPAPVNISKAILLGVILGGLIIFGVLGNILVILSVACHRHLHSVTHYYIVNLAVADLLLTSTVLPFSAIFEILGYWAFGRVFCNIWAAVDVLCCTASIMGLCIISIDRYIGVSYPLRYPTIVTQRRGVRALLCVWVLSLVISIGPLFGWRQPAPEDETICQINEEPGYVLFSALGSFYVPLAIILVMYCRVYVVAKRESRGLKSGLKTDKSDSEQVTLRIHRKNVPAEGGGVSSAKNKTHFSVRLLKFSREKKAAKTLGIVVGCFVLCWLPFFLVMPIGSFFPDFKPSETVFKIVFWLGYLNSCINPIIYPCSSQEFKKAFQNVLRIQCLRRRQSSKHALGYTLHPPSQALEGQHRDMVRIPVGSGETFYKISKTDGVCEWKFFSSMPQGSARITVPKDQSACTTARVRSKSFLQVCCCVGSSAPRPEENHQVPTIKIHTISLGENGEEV

Sequence of D(2) dopamine receptor (P14416 whole entry): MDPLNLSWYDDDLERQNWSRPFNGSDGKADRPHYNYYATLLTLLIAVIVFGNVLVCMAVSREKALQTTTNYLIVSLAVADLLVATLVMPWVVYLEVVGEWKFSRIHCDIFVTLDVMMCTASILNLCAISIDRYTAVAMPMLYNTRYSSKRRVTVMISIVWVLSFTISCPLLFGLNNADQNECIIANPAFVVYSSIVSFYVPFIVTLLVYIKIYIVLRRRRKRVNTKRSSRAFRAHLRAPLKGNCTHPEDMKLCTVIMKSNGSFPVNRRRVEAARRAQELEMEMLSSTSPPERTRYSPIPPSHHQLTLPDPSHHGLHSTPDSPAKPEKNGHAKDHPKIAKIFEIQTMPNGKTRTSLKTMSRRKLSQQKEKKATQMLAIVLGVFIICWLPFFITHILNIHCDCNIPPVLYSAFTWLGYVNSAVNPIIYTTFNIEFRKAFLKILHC

With `C[C@H](CN(C(=O)c1ccc(C#N)cc1)c1ccccn1)N1CCN(c2cccc3c2OCCO3)CC1`, the inhibition constant (Ki) (usually the dissociation constant of the complex between target and ligand, obtained from inhibition or displacement) on D(4) dopamine receptor turned out to be 98 nM; at D(2) dopamine receptor, 1550 nM; in experiment [1], 4.5 nM; on D(3) dopamine receptor, 320 nM; in experiment [2] it was 248 nM.
